# Laboratory results from patent US6737383B1, “Herbicidal oxadiazolidines” (priority 1999, dated 2004).
# Legend:
# wheat = assay: Test B pre/postemergence wheat; type: in vivo, Triticum aestivum
# Method in brief: (§1)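 Response is a visual 0-to-10 score relative to untreated plants, where 0 means no effect and 10 means complete control, taken twelve to sixteen days after application. Treatments went onto soil at planting and onto foliage of 1- to 4-leaf plants, using a surfactant-containing non-phytotoxic solvent.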
# velvetleaf = assay: Test B pre/postemergence velvetleaf; type: in vivo, Abutilon theophrasti
# Method in brief: as §1
# crabgrass = assay: Test B pre/postemergence crabgrass; type: in vivo, Digitaria sanguinalis
# Method in brief: as §1
# purple nutsedge = assay: Test B pre/postemergence purple nutsedge; type: in vivo, Cyperus rotundus
# Method in brief: as §1
# bedstraw = assay: Test B pre/postemergence bedstraw; type: in vivo, Galium aparine
# Method in brief: as §1
# blackgrass = assay: Test B pre/postemergence blackgrass; type: in vivo, Alopecurus myosuroides
# Method in brief: as §1
# cocklebur = assay: Test B pre/postemergence cocklebur; type: in vivo, Xanthium strumarium
# Method in brief: as §1
# wild oat = assay: Test B pre/postemergence wild oat; type: in vivo, Avena fatua
# Method in brief: as §1
# corn = assay: Test B pre/postemergence corn; type: in vivo, Zea mays
# Method in brief: as §1
# soybean = assay: Test B pre/postemergence soybean; type: in vivo, Glycine max
# Method in brief: as §1
# pigweed = assay: Test B pre/postemergence pigweed; type: in vivo, Amaranthus retroflexus
# Method in brief: as §1
# giant foxtail = assay: Test B pre/postemergence giant foxtail; type: in vivo, Setaria faberii
# Method in brief: as §1
# morningglory = assay: Test B pre/postemergence morningglory; type: in vivo, Ipomoea hederacea
# Method in brief: as §1
# sugar beet = assay: Test B pre/postemergence sugar beet; type: in vivo, Beta vulgaris
# Method in brief: as §1
# surinam grass = assay: Test B pre/postemergence surinam grass; type: in vivo, Brachiaria decumbens
# Method in brief: as §1
# rape = assay: Test B pre/postemergence rape; type: in vivo, Brassica napus
# Method in brief: as §1
# [1] = Postemergence, Rate 62 g/ha, scale of 0 to 10, 0 is no effect, 10 is complete control
# [2] = Postemergence, Rate 125 g/ha, scale 0 to 10, 0 is no effect, 10 is complete control
# [3] = Postemergence, Rate 500 g/ha, scale 0 to 10, 0 is no effect, 10 is complete control
# [4] = Preemergence, Rate 62 g/ha, scale 0 to 10 (0 no effect, 10 complete control)
# [5] = Preemergence, Rate 125 g/ha, scale 0 to 10, 0 is no effect, 10 is complete control
# [6] = Preemergence, Rate 500 g/ha, scale of 0 to 10 where 0 is no effect and 10 is complete control
# [7] = Rate 250 g/ha, Postemergence, scale of 0 to 10 where 0 is no effect and 10 is complete control
structure (smiles),measurement,setting,value
CC(C)=CCn1c(=O)on(C(=O)N(c2ccc(Cl)cc2)C(C)C)c1=O [Compound 545],Wheat plant response rating,wheat; [1],0
same,Wheat plant response rating,wheat; [2],0
same,"Plant response rating, Wheat",wheat; [3],0
same,Wheat plant response rating,wheat; [4],0
same,Wheat plant response rating,wheat; [5],0
same,Wheat plant response rating (0 to 10 scale),"wheat; Preemergence, Rate 250 g/ha",0
same,Wheat plant response rating,wheat; [6],2
same,"Plant response rating, Wheat",wheat; [7],0
same,Velvetleaf plant response rating,velvetleaf; [1],0
same,Velvetleaf plant response rating,velvetleaf; [2],3
same,Velvetleaf plant response rating,velvetleaf; [4],0
same,Velvetleaf plant response rating,velvetleaf; [5],0
same,Velvetleaf plant response rating (0 to 10 scale),"velvetleaf; Preemergence, Rate 250 g/ha",0
same,Velvetleaf plant response rating,velvetleaf; [6],0
same,"Plant response rating, Velvetleaf",velvetleaf; [7],6
same,Crabgrass plant response rating,crabgrass; [1],0
same,Crabgrass plant response rating,crabgrass; [2],2
same,"Plant response rating, Crabgrass",crabgrass; [3],9
same,Crabgrass plant response rating,crabgrass; [4],8
same,Crabgrass plant response rating,crabgrass; [5],10
same,Crabgrass plant response rating (0 to 10 scale),"crabgrass; Preemergence, Rate 250 g/ha",10
same,Crabgrass plant response rating,crabgrass; [6],10
same,"Plant response rating, Crabgrass",crabgrass; [7],3
same,Nutsedge plant response rating,purple nutsedge; [1],0
same,Nutsedge plant response rating,purple nutsedge; [4],0
same,Nutsedge plant response rating,purple nutsedge; [5],0
same,Nutsedge plant response rating (0 to 10 scale),"purple nutsedge; Preemergence, Rate 250 g/ha",0
same,Nutsedge plant response rating,purple nutsedge; [6],0
same,Bedstraw plant response rating,bedstraw; [1],0
same,Bedstraw plant response rating,bedstraw; [2],0
same,"Plant response rating, Bedstraw",bedstraw; [3],7
same,Bedstraw plant response rating,bedstraw; [4],0
same,Bedstraw plant response rating,bedstraw; [5],0
same,Bedstraw plant response rating (0 to 10 scale),"bedstraw; Preemergence, Rate 250 g/ha",0
same,Bedstraw plant response rating,bedstraw; [6],10
same,"Plant response rating, Bedstraw",bedstraw; [7],2
same,Blackgrass plant response rating,blackgrass; [1],0
same,Blackgrass plant response rating,blackgrass; [2],0
same,"Plant response rating, Blackgrass",blackgrass; [3],0
same,Blackgrass plant response rating,blackgrass; [4],0
same,Blackgrass plant response rating,blackgrass; [5],0
same,Blackgrass plant response rating (0 to 10 scale),"blackgrass; Preemergence, Rate 250 g/ha",2
same,Blackgrass plant response rating,blackgrass; [6],9
same,"Plant response rating, Blackgrass",blackgrass; [7],0
same,Cocklebur plant response rating,cocklebur; [1],0
same,Cocklebur plant response rating,cocklebur; [2],3
same,Cocklebur plant response rating,cocklebur; [4],0
same,Cocklebur plant response rating,cocklebur; [5],0
same,Cocklebur plant response rating (0 to 10 scale),"cocklebur; Preemergence, Rate 250 g/ha",0
same,Cocklebur plant response rating,cocklebur; [6],0
same,"Plant response rating, Cocklebur",cocklebur; [7],8
same,Wild oats plant response rating,wild oat; [1],0
same,Wild oats plant response rating,wild oat; [2],0
same,"Plant response rating, Wild oats",wild oat; [3],0
same,Wild oats plant response rating,wild oat; [4],0
same,Wild oats plant response rating,wild oat; [5],0
same,Wild oats plant response rating (0 to 10 scale),"wild oat; Preemergence, Rate 250 g/ha",2
same,Wild oats plant response rating,wild oat; [6],6
same,"Plant response rating, Wild oats",wild oat; [7],0
same,Corn plant response rating,corn; [1],0
same,Corn plant response rating,corn; [2],0
same,"Plant response rating, Corn",corn; [3],0
same,Corn plant response rating,corn; [4],0
same,Corn plant response rating,corn; [5],0
same,Corn plant response rating (0 to 10 scale),"corn; Preemergence, Rate 250 g/ha",0
same,Corn plant response rating,corn; [6],0
same,"Plant response rating, Corn",corn; [7],0
same,Soybean plant response rating,soybean; [1],1
same,Soybean plant response rating,soybean; [2],1
same,"Plant response rating, Soybean",soybean; [3],2
same,Soybean plant response rating,soybean; [4],0
same,Soybean plant response rating,soybean; [5],0
same,Soybean plant response rating (0 to 10 scale),"soybean; Preemergence, Rate 250 g/ha",0
same,Soybean plant response rating,soybean; [6],0
same,"Plant response rating, Soybean",soybean; [7],2
same,Redroot pigweed plant response rating,pigweed; [1],0
same,Redroot pigweed plant response rating,pigweed; [2],0
same,"Plant response rating, Redroot pigweed",pigweed; [3],0
same,Redroot pigweed plant response rating,pigweed; [4],3
same,Redroot pigweed plant response rating,pigweed; [5],8
same,Redroot pigweed plant response rating (0 to 10 scale),"pigweed; Preemergence, Rate 250 g/ha",9
same,Redroot pigweed plant response rating,pigweed; [6],10
same,"Plant response rating, Redroot pigweed",pigweed; [7],0
same,Giant foxtail plant response rating,giant foxtail; [1],0
same,Giant foxtail plant response rating,giant foxtail; [2],0
same,"Plant response rating, Giant foxtail",giant foxtail; [3],5
same,Giant foxtail plant response rating,giant foxtail; [4],10
same,Giant foxtail plant response rating,giant foxtail; [5],10
same,Giant foxtail plant response rating (0 to 10 scale),"giant foxtail; Preemergence, Rate 250 g/ha",10
same,Giant foxtail plant response rating,giant foxtail; [6],10
same,"Plant response rating, Giant foxtail",giant foxtail; [7],3
same,Morningglory plant response rating,morningglory; [1],4
same,Morningglory plant response rating,morningglory; [2],4
same,Morningglory plant response rating,morningglory; [4],0
same,Morningglory plant response rating,morningglory; [5],0
same,Morningglory plant response rating (0 to 10 scale),"morningglory; Preemergence, Rate 250 g/ha",0
same,Morningglory plant response rating,morningglory; [6],8
same,"Plant response rating, Morningglory",morningglory; [7],10
same,Sugarbeets plant response rating,sugar beet; [1],0
same,Sugarbeets plant response rating,sugar beet; [2],0
same,"Plant response rating, Sugarbeets",sugar beet; [3],3
same,Sugarbeets plant response rating,sugar beet; [4],0
same,Sugarbeets plant response rating,sugar beet; [5],0
same,Sugarbeets plant response rating (0 to 10 scale),"sugar beet; Preemergence, Rate 250 g/ha",2
same,Sugarbeets plant response rating,sugar beet; [6],6
same,"Plant response rating, Sugarbeets",sugar beet; [7],0
same,B. signalgrass plant response rating,surinam grass; [1],0
same,B. signalgrass plant response rating,surinam grass; [2],0
same,"Plant response rating, B. signalgrass",surinam grass; [3],2
same,B. signalgrass plant response rating,surinam grass; [4],0
same,B. signalgrass plant response rating,surinam grass; [5],0
same,"B. signalgrass plant response rating (0 to 10 scale, 0 is no effect, 10 is complete control)","surinam grass; Preemergence, Rate 250 g/ha",0
same,B. signalgrass plant response rating,surinam grass; [6],5
same,"Plant response rating, B. signalgrass",surinam grass; [7],2
same,Rape plant response rating,rape; [1],0
same,Rape plant response rating,rape; [2],0
same,"Plant response rating, Rape",rape; [3],3
same,Rape plant response rating,rape; [4],0
same,Rape plant response rating,rape; [5],0
same,Rape plant response rating (0 to 10 scale),"rape; Preemergence, Rate 250 g/ha",0
same,Rape plant response rating,rape; [6],2
same,"Plant response rating, Rape",rape; [7],0
